Values joined by “and” are separate entries in the source; they are usually repeats but may differ in a detail not shown here. Equal values may be shown once. Marks after values point to notes of the source that are not given here.

The source of these data is article PMC8001783, “New Lignanamides with Antioxidant and Anti-Inflammatory Activities Screened Out and Identified from Warburgia ugandensis Combining Affinity Ultrafiltration LC-MS with SOD and XOD Enzymes” (Antioxidants, 2021).

Assay [1] in a line: DPPH free radical scavenging assay. Particulars: pure compounds; 30 min, 517 nm, n = 3. Here is the method: The DPPH free radical scavenging activities of extracts and pure compounds from stem barks of W. ugandensis were tested according to previous studies with slight modifications. Firstly, 10 µL solutions of the samples, appropriately diluted with MeOH, were homogeneously mixed with 190 µL solution of DPPH (0.1 mM in MeOH) in a 96-well plate. Secondly, the mixtures were gently shaken and put at room temperature for 30 min in the darkness. Finally, the absorbance was recorded at 517 nm with multifunctional microplate reader. Trolox was used as positive control, and MeOH was used as blank control. Each of the samples and controls were tested in triplicate (n = 3). The antioxidant activities of DPPH were expressed as IC50 (concentration of samples caused 50% inhibition) and TEAC values. The TEAC values were calculated from the standard curve of Trolox and expressed as millimoles of Trolox equivalents per gram of sample (mmol TE/g). The inhibition of the DPPH radical was calculated according to the following formula:DPPH scavenging activity (%) = (1 − absorbance of sample/absorbance of blank control) × 100,(1) where DPPH scavenging activities (%) were plotted against the concentration of samples to obtain the IC50.
(The DPPH test is a chemical assay of radical scavenging.)

For assay [2], the system named is LPS-induced NO production in RAW 264.7 macrophages. Also on record: method as in doi:10.5012/bkcs.2013.34.10.3105, PMID 29177586, PMID 31888376. The conditions noted are these: cited from earlier work.
The subject of a further assay is xanthine oxidase (XOD). As to the kind of experiment: Affinity ultrafiltration LC-MS/MS with XOD (relative binding affinity). Further details: key: -: No binding affinity. Particulars: peaks of WUE-A4, XOD 2 U, 37 °C 1 h, n = 3. As to the method:
(§1) The experimental conditions were proposed according to previous relevant studies. Briefly, the optimized experiment was composed of three steps. Incubation was the first step, where 100 μL WUE-A4 (10.0 mg/mL), 10 µL SOD (2 U) or XOD (2 U), and 90 µL Tris-HCl (pH = 7.8) were mixed well in 1.5 mL EP tubes, and then incubated at 37 °C in the dark for 1 h. Meanwhile, the incubation operations of inactivated enzymes (inactivated enzymes were obtained by heating enzymes in a 99 °C water bath for 10 min) were the same as the active enzymes. Adsorption was the second step, where the incubated solutions were transferred to ultrafiltration tubes with 30 KDa (for SOD) or 10 KDa (for XOD) ultrafiltration membranes and then centrifuged at 10,000 rpm for 10 min at 25 °C. Simultaneously, components which had no binding affinity to enzymes were washed out. Immediately, 300 µL of Tris-HCl solution (pH = 7.8) was added to the ultrafiltration tubes and centrifuged at 10,000 rpm for 5 min at 25 °C to remove the potential unbound components. Desorption was the third step, where 300 µL of 90% (v/v) MeOH-H2O was added and incubated for 10 min at room temperature, and the mixed solutions were centrifuged at 10,000 rpm for another 10 min at 25 °C. After that, the desorption process was repeated two times to release those components with specific bindings to SOD or XOD from the enzyme-ligand complexes. Finally, those ultrafiltrates were dried and reconstituted in 50 µL MeOH for the HPLC-UV/ESI-MS/MS analysis.
(§2) HPLC-UV/ESI-MS/MS was carried out to characterize the components in WUE-A4 before and after ultrafiltration by using a Thermo Accela 600 series HPLC connected with a TSQ Quantum Access MAX mass spectrometer (Thermo Fisher Scientific, San Jose, CA, USA). A Waters Symmetry RP-C18 column (4.6 × 250 mm, 5 µm) was used to perform chromatographic analysis at 30 °C, and the mobile phase consisted of H2O with 0.1% formic acid (A) and ACN (B). The optimized HPLC elution procedures were as follows: 0–15 min, 17% B; 15–40 min, 17–30% B, 40–42 min: 30–56% B. The flow rate was 0.8 mL/min, the injection volume was 10 µL, and the HPLC-UV chromatograms were detected at a wavelength of 254 nm. The negative ion modes were applied to obtained ESI-MS/MS data. Moreover, the parameters of instrument were set as follows: the vaporizer temperature was 350 °C, the capillary temperature was 250 °C, the spray voltage was 3000 V, the cone voltage energy was 40 V, the collision energy was 10 V, the sheath gas pressure was 40 psi, the aux gas pressure was 10 psi, the drying gas flow rate was 6.0 L/min, and the mass range was set from 50 to 1100 (m/z) in the full-scan mode. Finally, the Thermo Xcalibur ChemStation (Thermo Fisher Scientific) was used for data acquisition and analysis.
(§3) For further evaluation of the affinity binding strength between the potential ligands and the target enzymes, the relative binding affinity (RBA) was employed to compare the variation of the correlated peak areas in the UF-HPLC-UV chromatograms before and after activation. The RBA formula is expressed as RBA = Aactive/Ainactivated, where the Aactive and Ainactivated represent the peak areas obtained from the WUE-A4 samples with activated and inactivated SOD or XOD, respectively.

Assay [3] concerns superoxide dismutase (SOD). The assay can be described thus: Affinity ultrafiltration LC-MS/MS with SOD (relative binding affinity). Also on record: key: -: No binding affinity. The conditions noted are these: peaks of WUE-A4, SOD 2 U, 37 °C 1 h, n = 3. Here is the method:
as §1, §2, §3

Assay [4] can be described thus: Ferric reducing antioxidant power (FRAP) assay. The conditions noted are these: for FRAP value: 37 °C, 10 min, 593 nm, n = 3. As to the method: The ferric reducing antioxidant power assays on different extracts and pure compounds of stem barks from W. ugandensis were tested according to previous studies with slight modifications. Firstly, freshly prepared FRAP reagent (Fe^3+-TPTZ solution) was composed of FeCl3∙6H2O (20 mM in H2O), TPTZ (10 mM in 40 mM HCl), and acetate buffer (300 mM, pH = 3.6) at a ratio of 1:1:10 (v/v/v), then incubated at 37 °C after preparation, and used within 1–2 h. Secondly, 10 µL of appropriately diluted solution of samples was added to the 190 µL freshly prepared FRAP reagent in 96-well plate. Thirdly, the mixtures were gently shaken and put at 37 °C for 10 min. Finally, the absorbance was recorded at 593 nm with multifunctional microplate reader. Trolox was used as a positive control, and MeOH was used as blank control. Each of the samples and controls were tested in triplicate (n = 3). The antioxidant activities of FRAP were expressed as FRAP values and TEAC values. The FRAP values were calculated and expressed as millimoles of Fe^2+ equivalents per gram of sample (mmol Fe^2+/g) based on a calibration curve plotted using FeSO4∙7H2O as standard at a concentration ranging from 0.0185 to 1.5 mM.

For orientation: IC50 means the concentration at which inhibition is half-maximal. Regarding `O=C(/C=C/c1ccc(O)c(O)c1)NCCc1ccc(O)cc1` [compound 7, N-trans-caffeoyltyramine], the IC50 in assay [1] was determined as 636 ± 290 µM. The “inhibitory effect against LPS-induced NO production” value in assay [2] is listed as “good inhibitory effects”. In the assay on xanthine oxidase (XOD), the “UF-RBA XOD (relative binding affinity = Aactive/Ainactivated)” value is 1.1 ± 0.3 ^c,d. Besides, in assay [3], the “UF-RBA SOD (relative binding affinity = Aactive/Ainactivated)” value is 1.1 ± 0.3 ^e. For the same compound, in assay [4], the FRAP value is given as 1.9 ± 0.1 ^c mmol Fe^2+/g.

Consider `COc1cc(C2c3c(cc(O)c(O)c3OC)C=C(C(=O)NCCc3ccc(O)cc3)C2C(=O)NCCc2ccc(O)cc2)cc(O)c1O` (stereo not drawn) [compound 14], for which the IC50 in assay [1] was 6.41 µM and 6.4 µM. For the same compound, the figures for the “UF-RBA XOD (relative binding affinity = Aactive/Ainactivated)” value with xanthine oxidase (XOD) and in the assay on xanthine oxidase (XOD) (listed as peak 14) were 3.8 ± 0.5 ^a and 3.76, respectively. Besides, the “UF-RBA SOD (relative binding affinity = Aactive/Ainactivated)” value in assay [3] is 1.5 ± 0.1 ^c,d,e; in assay [3] (listed as peak 14) it was 1.51. In addition, the “total ferric-reducing antioxidant power (FRAP)” value in assay [4] amounted to 17.488 ± 1.625 mmol Fe^2+/g. Moreover, in assay [4], the FRAP value was 17.488 ± 1.625 mmol Fe^2+/g and 17.5 ± 1.6 ^a mmol Fe^2+/g.

Take `COc1cc(C2c3c(cc(OC)c(O)c3O)C=C(C(=O)NCCc3ccc(O)cc3)C2C(=O)NCCc2ccc(O)cc2)cc(O)c1O` (stereo not drawn) [compound 13]: the IC50 in assay [1] was found to be 115 ± 20.8 µM. The “UF-RBA XOD (relative binding affinity = Aactive/Ainactivated)” value with xanthine oxidase (XOD) was 1.3 ± 0.2 ^c,d. In addition, the “UF-RBA SOD (relative binding affinity = Aactive/Ainactivated)” value in assay [3] is recorded as 1.3 ± 0.1 ^e. Besides, in assay [4], the FRAP value was 1.3 ± 0.2 ^c mmol Fe^2+/g.

For `C[C@@H]1O[C@@H](O[C@@H]2[C@@H](O)[C@H](O)[C@@H](CO)O[C@H]2c2cc(-c3cc(=O)c4c(O)cc(O)cc4o3)cc(O)c2O)[C@H](O)[C@H](O)[C@H]1O` [compound 1, 2-[3-[2-O-(6-deoxy-α-L-mannopyranosyl)-β-D-glucopyranosyl]-4,5-dihydroxyphenyl]-5,7-dihydroxy-4H-1-benzopyran-4-one], the IC50 in assay [1] is 25.8 ± 1.4 µM. Further, in the assay with xanthine oxidase (XOD), the “UF-RBA XOD (relative binding affinity = Aactive/Ainactivated)” value is recorded as 1.2 ± 0.6 ^c,d. For the same compound, the “UF-RBA SOD (relative binding affinity = Aactive/Ainactivated)” value in assay [3] is listed as 1.9 ± 0.1 ^a,b,c; in assay [3] (listed as peak 1) it was 1.93. Also, the FRAP value in assay [4] is 5.4 ± 0.7 ^b mmol Fe^2+/g.

In the case of “1-(3,4-dihydroxy-5-methoxyphenyl)-1,2-dihydroxy-7,8-dihydroxy-N-[(3,4-dihydroxyphenyl)-ethyl]-N′-[(4-hydroxyphenyl)-ethyl]-6-methoxynaphthalene-2,3-dicarboxamide [compound 11]”, the IC50 in assay [1] stood at 59.1 ± 4.1 µM. Also, the results for the “UF-RBA XOD (relative binding affinity = Aactive/Ainactivated)” value in the assay on xanthine oxidase (XOD) and with xanthine oxidase (XOD) (listed as peak 11) were “-” and “extremely low or no binding affinities”, respectively. Moreover, the entries for the “UF-RBA SOD (relative binding affinity = Aactive/Ainactivated)” value in assay [3] and in assay [3] (listed as peak 11) were “-” and “extremely low or no binding affinities”, respectively. In addition, in assay [4], the FRAP value is 2.2 ± 0.1 ^c mmol Fe^2+/g.
